According to US8802593B2 (priority 2009, dated 2014):

Key:
Assay type in all cases: in vivo
Fusarium graminearum = conditions: corn (Pioneer) seeds; QoI alone 10 g per 100 kg seeds; 15° C. for 15 days; seedling emergence
[1] = test system: Fusarium solani f. sp. pisi; assay: Test Example 1: seed treatment of pea, pea root rot, control value; conditions: Pisum sativum L seeds, Compound I 0, pea root rot after 16 days
Method: A DMSO solution of the compound I and a DMSO solution of the compound (1b) were respectively prepared. These solutions were mixed to prepare a DMSO solution containing predetermined concentrations of the compound I and the compound (1b). Ten (10) μL of the DMSO solution and 10 g of seeds of Pisum sativum L were mixed by shaking in a 50-ml conical tube and then allowed to stand overnight to prepare treated seeds. A plastic pot was filled with sandy soil and the treated seeds were sown on it and then covered with sandy soil which had been mixed with a bran culture of Fusarium solani f. sp. pisi. The sown seeds were watered and then cultured in a greenhouse at 20 to 24° C. […] After 16 days, the occurrence of pea root rot diseases was checked and the incidence of disease was calculated by Equation 1.
For comparison, a DMSO solution containing a predetermined concentration of the compound (1b) was prepared and subjected to the same test and then the incidence of disease was determined.
(§1) In order to calculate a control value, the same test was conducted in which the plants had been treated with none of the test compounds and the incidence of disease was determined.
(§2) The control value was calculated by the Equation 2 based on the incidence of disease thus determined. […]

wheat leaf rust = assay: Test Example 2: foliar spray on wheat, wheat leaf rust, control value; conditions: wheat (SHIROGANEKOMUGI) leaf spray, Compound I 0, 8 days at 23° C.
Method: A plastic pot was filled with sandy soil and seeds of wheat (SHIROGANEKOMUGI) were sown on it, followed by cultivation in a greenhouse for 10 days. A wettable powder of the compound I was prepared by mixing 10 parts of the compound I, 35 parts of a mixture of white carbon and a polyoxyethylene alkyl ether sulfate ammonium salt (weight ratio of 1:1) and 55 parts of […], followed by grinding the mixture. A wettable powder of the compound (1b) was prepared by mixing 10 parts of the compound (1b), 35 parts of a mixture of white carbon and a polyoxyethylene alkyl ether sulfate ammonium salt (weight ratio of 1:1) and 55 parts of […], followed by grinding the mixture. […] After allowing to stand overnight at 23° C. under high humidity followed by cultivation in an artificial climate laboratory at 23° C. for 8 days, leaf area and lesion area of the wheat leaves were checked and the incidence of disease was calculated by Equation 3. […]
as §1, §2

Fusarium avenaceum = assay: Test Example 4: seed treatment of corn, soil with Fusarium avenaceum, control value; conditions: corn (Pioneer) seeds; azoxystrobin alone 10 g per 100 kg seeds; 15° C. for 15 days; seedling emergence
Method: A DMSO solution of the compound I and a DMSO solution of azoxystrobin were respectively prepared. These solutions were mixed to prepare a DMSO solution containing predetermined concentrations of the compound I and azoxystrobin. Twenty-five (25) μL of each of the DMSO solution and 10 g of seeds of corn (Pioneer) were mixed by shaking in a 50-ml conical tube and then allowed to stand overnight to prepare treated seeds. A plastic pot was filled with sandy soil and the treated seeds were sown on it and then covered with sandy soil which had been mixed with a bran culture of Fusarium avenaceum. The sown seeds were watered and then cultured in a greenhouse at 15° C. for 15 days. The number of emerged seedlings was checked and the incidence of disease was calculated by Equation 4.
For comparison, a DMSO solution containing a predetermined concentration of azoxystrobin was prepared and subjected to the same test and then the incidence of disease was determined.
as §1
The control value was calculated by the Equation 2 based on the incidence of disease thus determined.

Row | Compound | Control value (Fusarium graminearum) | other results
1 | COC(=O)NCc1cc(/C(C)=N/OCc2cccc(C)n2)ccc1Cl [pyribencarb] | 83 | –
2 | CON=C(C(=O)OC)c1ccccc1CON=C(C)c1cccc(C(F)(F)F)c1 [trifloxystrobin] | 83 | –
3 | CNC(=O)C(OC)c1ccccc1COc1cc(C)ccc1C (racemic) [Compound (1b)] | 83 | Control value ([1]; Compound (1b) 1 g/100 kg seeds): 64; Control value ([1]; Compound (1b) 5 g/100 kg seeds): 64; Control value (wheat leaf rust; Compound (1b) 10 ppm): 50; Control value (wheat leaf rust; Compound (1b) 20 ppm): 81
4 | CO/N=C(/C(=O)OC)c1ccccc1COc1ccccc1C [kresoxim-methyl] | 67 | –
5 | CO/C=C(/C(=O)OC)c1ccccc1Oc1cc(Oc2ccccc2C#N)ncn1 [azoxystrobin] | – | Control value (Fusarium avenaceum): 67
6 | COC(=O)N(OC)c1ccccc1COc1ccn(-c2ccc(Cl)cc2)n1 [pyraclostrobin] | 83 | –
